Legend:
T-47D = assay: NCI one-dose screening, breast cancer T-47D; format: cell-based, human; details: 10 μM
HL-60, TB = assay: NCI one-dose screening, leukemia HL-60, TB; format: cell-based, human; details: 10 μM
UACC-62 = assay: NCI one-dose screening, melanoma UACC-62; format: cell-based, human; details: 10 μM
COLO 205 = assay: NCI one-dose screening, colon cancer COLO 205; format: cell-based, human; details: 10 μM
MDA-MB-231/ATCC = assay: NCI one-dose screening, breast cancer MDA-MB-231/ATCC; format: cell-based, human; details: 10 μM
SNB-75 = assay: NCI one-dose screening, CNS cancer SNB-75; format: cell-based, human; details: 10 μM
MCF7 = assay: NCI one-dose screening, breast cancer MCF7; format: cell-based, human; details: 10 μM
NCI-H226 = assay: NCI one-dose screening, non-small cell lung cancer NCI-H226; format: cell-based, human; details: 10 μM
UO-31 = assay: NCI one-dose screening, renal cancer UO-31; format: cell-based, human; details: 10 μM
CAKI-1 = assay: NCI one-dose screening, renal cancer CAKI-1; format: cell-based, human; details: 10 μM
ACHN = assay: NCI one-dose screening, renal cancer ACHN; format: cell-based, human; details: 10 μM
BT-549 = assay: NCI one-dose screening, breast cancer BT-549; format: cell-based, human; details: 10 μM
UACC-257 = assay: NCI one-dose screening, melanoma UACC-257; format: cell-based, human; details: 10 μM
786-O = assay: NCI one-dose screening, renal cancer 786-O; format: cell-based, human; details: 10 μM
NCI-H522 = assay: NCI one-dose screening, non-small cell lung cancer NCI-H522; format: cell-based, human; details: 10 μM
KM12 = assay: NCI one-dose screening, colon cancer KM12; format: cell-based, human; details: 10 μM
SK-MEL-2 = assay: NCI one-dose screening, melanoma SK-MEL-2; format: cell-based, human; details: 10 μM
HOP-62 = assay: NCI one-dose screening, non-small cell lung cancer HOP-62; format: cell-based, human; details: 10 μM
SK-MEL-28 = assay: NCI one-dose screening, melanoma SK-MEL-28; format: cell-based, human; details: 10 μM
SN12C = assay: NCI one-dose screening, renal cancer SN12C; format: cell-based, human; details: 10 μM
SK-MEL-5 = assay: NCI one-dose screening, melanoma SK-MEL-5; format: cell-based, human; details: 10 μM
RXF, 393 = assay: NCI one-dose screening, renal cancer RXF, 393; format: cell-based, human; details: 10 μM
SF-295 = assay: NCI one-dose screening, CNS cancer SF-295; format: cell-based, human; details: 10 μM
NCl/ADR-RES = assay: NCI one-dose screening, breast cancer NCl/ADR-RES; format: cell-based, human; details: 10 μM; listed under Ovarian cancer
HT29 = assay: NCI one-dose screening, colon cancer HT29; format: cell-based, human; details: 10 μM
HOP-92 = assay: NCI one-dose screening, non-small cell lung cancer HOP-92; format: cell-based, human; details: 10 μM
SR = assay: NCI one-dose screening, leukemia SR; format: cell-based, human; details: 10 μM
PRMI-8226 cell line = assay: NCI one-dose screening, leukemia PRMI-8226; format: cell-based, human; details: 10 μM
U251 = assay: NCI one-dose screening, CNS cancer U251; format: cell-based, human; details: 10 μM
HCC-2998 = assay: NCI one-dose screening, colon cancer HCC-2998; format: cell-based, human; details: 10 μM
OVCAR-8 = assay: NCI one-dose screening, ovarian cancer OVCAR-8; format: cell-based, human; details: 10 μM
[1] = NCI one-dose screening, renal cancer A489; format: cell-based, human; details: 10 μM
human tumor cell lines = assay: NCI one-dose screening, Mean / Delta / Range of growth percent over all tested cell lines; format: cell-based; details: 10 μM
MDA, -MB-435 = assay: NCI one-dose screening, breast cancer MDA, -MB-435; format: cell-based, human; details: 10 μM; listed under Melanoma
IGROV1 = assay: NCI one-dose screening, ovarian cancer IGROV1; format: cell-based, human; details: 10 μM
MALME-3M = assay: NCI one-dose screening, melanoma MALME-3M; format: cell-based, human; details: 10 μM
HCT-15 = assay: NCI one-dose screening, colon cancer HCT-15; format: cell-based, human; details: 10 μM
SF-268 = assay: NCI one-dose screening, CNS cancer SF-268; format: cell-based, human; details: 10 μM
TK-10 = assay: NCI one-dose screening, renal cancer TK-10; format: cell-based, human; details: 10 μM
SK-OV-3 = assay: NCI one-dose screening, ovarian cancer SK-OV-3; format: cell-based, human; details: 10 μM
HCT-116 = assay: NCI one-dose screening, colon cancer HCT-116; format: cell-based, human; details: 10 μM
PC-3 = assay: NCI one-dose screening, prostate cancer PC-3; format: cell-based, human; details: 10 μM
K562cell line = assay: NCI one-dose screening, leukemia K562; format: cell-based, human; details: 10 μM
LOX IMVI = assay: NCI one-dose screening, melanoma LOX IMVI; format: cell-based, human; details: 10 μM
NCI-H23 = assay: NCI one-dose screening, non-small cell lung cancer NCI-H23; format: cell-based, human; details: 10 μM
SF-539 = assay: NCI one-dose screening, CNS cancer SF-539; format: cell-based, human; details: 10 μM
HS 578-T = assay: NCI one-dose screening, breast cancer HS 578-T; format: cell-based, human; details: 10 μM; Breast cancer
NCI-H460 = assay: NCI one-dose screening, non-small cell lung cancer NCI-H460; format: cell-based, human; details: 10 μM
MDA-MB-468 = assay: NCI one-dose screening, breast cancer MDA-MB-468; format: cell-based, human; details: 10 μM
MOLT-4 = assay: NCI one-dose screening, leukemia MOLT-4; format: cell-based, human; details: 10 μM
SNB-19 = assay: NCI one-dose screening, CNS cancer SNB-19; format: cell-based, human; details: 10 μM
DU145 = assay: NCI one-dose screening, prostate cancer DU145; format: cell-based, human; details: 10 μM
[2] = test system: PC-3 prostate cancer cell line; assay: SRB assay cell viability, PC-3 prostate cancer cell line; format: cell-based, human; details: PC-3 prostate cancer cell line, Table II prints no unit, μM printed, read-out: SRB assay: 50% inhibition of cancer cell proliferation of sample concentration (IC50) of PC-3 prostate cancer cell line
OVCAR-3 = assay: NCI one-dose screening, ovarian cancer OVCAR-3; format: cell-based, human; details: 10 μM
A549/ATCC = assay: NCI one-dose screening, non-small cell lung cancer A549/ATCC; format: cell-based, human; details: 10 μM
EKVX = assay: NCI one-dose screening, non-small cell lung cancer EKVX; format: cell-based, human; details: 10 μM
M14 = assay: NCI one-dose screening, melanoma M14; format: cell-based, human; details: 10 μM
OVCAR-5 = assay: NCI one-dose screening, ovarian cancer OVCAR-5; format: cell-based, human; details: 10 μM

4-(2,5-dichloro-phenyl thio)anthra[2,1-c] [1,2,5]thiadiazol oxazole-6,11-dione [C35]
Growth Percent T-47D (T-47D): 63.44% | Growth Percent HL-60(TB) (HL-60, TB): 72.72% | Growth Percent UACC-62 (UACC-62): 94.09% | Growth Percent COLO 205 (COLO 205): 109.65% | Growth Percent MDA-MB-231/ATCC (MDA-MB-231/ATCC): 82.44% | Growth Percent SNB-75 (SNB-75): 47.00% | Growth Percent MCF7 (MCF7): 85.16% | Growth Percent NCI-H226 (NCI-H226): 112.00% | Growth Percent UO-31 (UO-31): 91.54% | Growth Percent CAKI-1 (CAKI-1): 108.19% | Growth Percent ACHN (ACHN): 88.50% | Growth Percent BT-549 (BT-549): 79.66% | Growth Percent UACC-257 (UACC-257): 119.38% | Growth Percent 786-0 (786-O): 67.49% | Growth Percent NCI-H522 (NCI-H522): 91.29% | Growth Percent KM12 (KM12): 101.18% | Growth Percent SK-MEL-2 (SK-MEL-2): 101.38% | Growth Percent HOP-62 (HOP-62): 63.18% | Growth Percent SK-MEL-28 (SK-MEL-28): 122.69% | Growth Percent SN12C (SN12C): 96.65% | Growth Percent SK-MEL-5 (SK-MEL-5): 108.82% | Growth Percent RXF 393 (RXF, 393): 91.47% | Growth Percent SF-295 (SF-295): 78.93% | Growth Percent NCI/ADR-RES (NCl/ADR-RES): 83.13% | Growth Percent HT29 (HT29): 106.27% | Growth Percent HOP-92 (HOP-92): 65.12% | Growth Percent SR (SR): 41.15% | Growth Percent RPMI-8226 (PRMI-8226 cell line): 77.16% | Growth Percent U251 (U251): 63.57% | Growth Percent HCC-2998 (HCC-2998): 109.37% | Growth Percent OVCAR-8 (OVCAR-8): 85.13% | Growth Percent A498 [1]: 87.70% | Growth Percent Delta (human tumor cell lines; delta over all cell lines): 85.86% | Growth Percent Mean (human tumor cell lines; mean over all cell lines): 87.13% | Growth Percent Range (human tumor cell lines; range over all cell lines): 121.42% | Growth Percent MDA-MB-435 (MDA, -MB-435): 105.64% | Growth Percent IGROV1 (IGROV1): 78.13% | Growth Percent MALME-3M (MALME-3M): 94.30% | Growth Percent HCT-15 (HCT-15): 92.85% | Growth Percent SF-268 (SF-268): 82.95% | Growth Percent TK-10 (TK-10): 111.76% | Growth Percent SK-OV-3 (SK-OV-3): 84.09% | Growth Percent HCT-116 (HCT-116): 81.94% | Growth Percent PC-3 (PC-3): 80.59% | Growth Percent K562 (K562cell line): 47.80% | Growth Percent LOX IMVI (LOX IMVI): 73.05% | Growth Percent NCI-H23 (NCI-H23): 74.59% | Growth Percent SF-539 (SF-539): 88.74% | Growth Percent HS 578T (HS 578-T): 72.51% | Growth Percent NCI-H460 (NCI-H460): 100.98% | Growth Percent MDA-MB-468 (MDA-MB-468): 90.73% | Growth Percent MOLT-4 (MOLT-4): 1.27% | Growth Percent SNB-19 (SNB-19): 84.39% | Growth Percent DU145 (DU145): 102.44% | IC50 [2]: > 15 µM | Growth Percent OVCAR-3 (OVCAR-3): 99.41% | Growth Percent A549/ATCC (A549/ATCC): 102.75% | Growth Percent EKVX (EKVX): 109.03% | Growth Percent M14 (M14): 98.95% | Growth Percent OVCAR-5 (OVCAR-5): 108.82%

— patent US8877748B2, “Heterocyclic fused anthraquinone derivatives, manufacturing method and pharmaceutical composition using thereof” (National Defense Medical Center, priority 2012, dated 2014)
